Experimental data published in doi:10.1101/2025.07.20.665728 (bioRxiv, 2025).

How the values were obtained:
Assay type in all cases: cell-based
[1] = system: MAIT cells in human PBMC; experiment: MAIT cell proliferation in CTV-labeled PBMCs; settings: day 7, 5-OP-RU 10 μM, RF ligands 100 μM
[2] = system: THP-1.MR1 cells; experiment: Cell surface MR1 quantification by flow cytometry, THP-1.MR1; settings: THP-1.MR1, 3 h
Protocol: Next, we investigated whether these RF catabolites can impact MR1 cell surface expression in both MR1-transduced B cell lymphoblastoid (C1R.MR1) and monocytic (THP-1.MR1) cell lines (Fig. 2). Here, the cells were pulsed with 1–200 μM of RF or the RF catabolites, and the cell surface levels of MR1 were quantified by flow cytometry ([Awad et al., 2020a]; [Keller et al., 2017]). Cell viability was unaffected, even at highest concentrations of the catabolites, as depicted in Fig. S2A. […] No impact on the MR1 surface level was observed when the parental C1R cells were incubated with these RF catabolites, probably due to the low basal surface MR1 level whose further reduction becomes undetectable by the anti-MR1 antibody (Fig. S2B). The MR1 downregulation seen in C1R.MR1 cells was specific to MR1 as the level of HLA-A*02:01 was not affected after pulsing C1R-A2 with the ligands (Fig. S2C). […]
(§1) The level of MR1 expressed on the cell surface was measured after the exposure to the investigated ligands as previously described ([Awad et al., 2020a]; [Wang et al., 2022a]). […] The PE fluorescence intensity reflects the surface MR1 level. The data was acquired with an LSRFortessa X-20 (BD Biosciences) and Diva software (BD Biosciences) and analyzed using FlowJo software (BD Biosciences).

[3] = system: C1R.MR1^R9H cells; experiment: Cell surface MR1 R9H quantification, C1R.MR1^R9H
Excerpt: We then tested the effect of the RF catabolites on the expression of two mutant versions of MR1 termed MR1^R9H ([Howson et al., 2020]) and MR1^K43A ([Reantragoon et al., 2013]). First, we tested the MR1^R9H mutant ([Howson et al., 2020]) which represents a rare, natural human polymorph. […] When C1R. […] Next, we tested sought to understand how the previously characterised Lys43A mutation affects ligand binding. […] While this is in line with the ability of these ligands to bind MR1, the reason for MR1^K43A cell surface accumulation is less clear. The most likely explanation is that these ligands bind ER-resident MR1^K43A, in line with our data using wild-type MR1; however, because the K43A mutation results in spontaneous MR1 surface egress, the presence of these stabilising ligands promotes enhanced trafficking and/or retention at the cell surface. We cannot rule out however that the ligands may also bind directly to surface MR1^K43A and slow down the recycling from cell surface.
as §1

[4] = system: C1R.MR1 cells; experiment: Endo H treatment and western blot of intracellular MR1; settings: C1R.MR1, 16 h; RF and catabolites 100 μM, Ac-6-FP 10 μM
Protocol: The downregulation of MR1 on the cell surface by the RF catabolites could be due to the depletion of the intracellular ER-resident MR1 pool, or by retention of MR1 in the ER, as shown for the DB28 ligand ([Salio et al., 2020]). To investigate this, C1R.MR1 cells were treated for 16 h with 100 μM of RF or RF catabolites, conditions which induce MR1 downregulation (Fig. 3A). Cells were lysed, and treated with endoglycosidase (Endo) H, to distinguish molecules that remain within the ER from those that have trafficked to the cell surface ([McWilliam et al., 2016]), then MR1 levels were assessed by immunoblotting (Fig. 3A).
Figure 3. […] S, Endo H–susceptible MR1; R, Endo H–resistant MR1. The Endo H–susceptible MR1 and Endo H–resistant MR1 fractions were quantified in at least two independent experiments. (b) Intracellular total MR1 level was also measured in C1R.MR1 cells by flow cytometry after treating the cells with the indicated ligands (100 μM) for 16h followed by permeabilization and staining with anti-MR1-PE (8F2.F9). Shown are the overlay histograms (top) and a bar chart depicting the geometric mean fluorescence intensity (gMFI) fold change of intracellular MR1 level (bottom) from three independent experiments performed in duplicates, with standard error (SEM) represented by the error bars. […]

[5] = system: THP-1.MR1 cells; experiment: Competition with Ac-6-FP-induced MR1 upregulation, THP-1.MR1; settings: 1–200 μM overnight, then 10 μM Ac-6-FP 3 h

Cc1cc2nc3[nH]c(=O)[nH]c(=O)c3nc2cc1C [Lumichrome, 7,8-dimethylalloxazine]
MAIT cell proliferation [1]: significantly reduced MAIT cell proliferation

Cc1cc2nc3c(=O)[nH]c(=O)nc-3n(C)c2cc1C [Lumiflavin]
MR1 cell surface expression [2]: downregulated MR1

Cc1cc2nc3c(=O)[nH]c(=O)nc-3n(C[C@H](O)[C@H](O)[C@H](O)CO)c2cc1C [RF, Riboflavin]
MR1^R9H surface level [3]: did not deviate from the background level | Endo H-resistant MR1 [4]: Neither RF nor its catabolites induced any Endo H-resistant MR1 | effect on Ac-6-FP-induced cell surface upregulation of MR1 [5]: did not modulate
